Measurements taken from US12558329B2 (New York University, priority 2021, dated 2026).
Entries after “also recorded” stand apart in the source; their conditions may differ. Values belong to the compound of their own block, whether it stands above or below them.

Key:
MIAPACA2 cells [1] = assay: Pulse-chase study with tyrosine-derived intermediates after two weeks of 13C9-Tyr labelling; assay type: cell-based, human; conditions: for effect on intracellular levels of the other Tyr-derived metabolites: exogenous unlabelled metabolite; for increase of the fraction of unlabelled (non-labelled) CoQ10: unlabelled intermediate added in the presence of 13C9-Tyr, 21% O2
Method: Using the same experimental scheme, the incorporation of Tyr-derived metabolites into CoQ10 was measured. […] For metabolomics, briefly, cells were washed in 4° C. 0.9% saline and metabolites were extracted with 46% methanol:23% H2O:[…] chloroform that contained a labelled amino acid standard mix (MSK-A2-1.2, Cambridge Isotope Laboratories, Inc.). Enzymatic assay samples were extracted using 80% methanol: 20% H2O that contained labelled amino acid standards. Extracts were placed into 1.5 mL Eppendorf tubes, vortexed at 4° C. for 10 min and centrifuged at 4° C. for 10 min at 17,200×g in a microcentrifuge. The aqueous phase was transferred to vials for GC-MS or Eppendorf tubes for LC-MS. Polar samples were evaporated in a […] and samples were resolved by GC-MS or LC-MS. Lipid samples were dried using a stream of N2 (for ^18O labelling studies) or air. Metabolite and lipid extracts were submitted to the […] Metabolomics Core Resource Laboratory. For polar metabolomics, the LC column was a Millipore ZIC-pHILIC (2.1×150 […], 5 μm bead size) coupled to a Dionex […] 3000 system. The column oven temperature was held at 25° C. The flow rate was 100 μL/min, and the injection volume was 1 μL. Buffer A was 10 mM ammonium carbonate in water, pH 9, and Buffer B was neat acetonitrile. The gradient profile was 80-20% B (0-30 min), 20-80% B (30-31 min), and 80-80% B (31-42 min). MS Analyses were carried out on a Thermo Q Exactive HF mass spectrometer using a heated electrospray ionization (HESI) source. The method duration was 30 min using a polarity-switching, top 5 method. The spray voltage for both positive and negative ion modes was 3.5 kV. The capillary temperature was 320° C. with a maximum spray current of 100 ρA. The full MS scan was carried out at 120,000 resolution with a scan range of 67-1000 m/z. For ^18O2 labelling experiments, full MS scans were carried out at 240,000 resolution at the same scan range. Tandem MS spectra were obtained at 15,000 resolution. All data were acquired in profile mode. Peak heights were analyzed using Xcalibur (ThermoFisher Scientific). Lipid metabolomics were acquired using a Waters CSH-C18 (2.1×100 mm, 1.7 μm) column coupled to a Dionex […] 3000 system. The column oven temperature was held at 55° C. The flow rate was 300 μL/min and the injection volume was 1 μL. Buffer A was 60:40 acetonitrile:water, 0.1% formic acid and Buffer B was 90:10 isopropanol:acetonitrile, 10 mM ammonium formate. The gradient profile was 40-43% B (0-1.25 min), 43-50% B (1.25-2 min), 50-54% B (2-11 min), 54-70% B (11-12 min), 70-99% B (12-18 min), […], 99-40% B (23-24 min), hold at 40% B (1 min). MS Analyses were carried out on a Thermo Q Exactive HF mass spectrometer using a heated electrospray ionization (HESI) source. The method duration was 20 minutes using a polarity-switching, top 10 method. The spray voltage for both positive and negative ion modes was 3.5 kV. The capillary temperature was 320° C. with a maximum spray current of 100 ρA. The full MS scan was carried out at 120,000 resolution with a scan range of 350-2000 m/z. For ^18O2 labelling experiments, full MS scan was carried out at 240,000 resolution at the same scan range. Tandem MS spectra were obtained at 15,000 resolution. All data were acquired in profile mode. Peak heights were analyzed using Xcalibur (ThermoFisher Scientific).

MIAPACA2 cells [2] = assay: Oxygen consumption rate (OCR) in spheroids; assay type: cell-based, human; conditions: HPDL KO cells, 1 mM, 3D conditions
Method: For measurement of oxygen consumption in spheroids, oxygen consumption rate (OCR) was measured with an XF96 analyzer (Seahorse Bioscience) and the Seahorse XFe96 Spheroid FluxPak, as described by the manufacturer's protocol. Spheroids were generated by seeding 40,000 cells per well into a low-attachment U-bottom 96-well plate with DMEM+10% diaFBS and 5% Matrigel. If indicated, spheroids were treated with or without 1 mM 4-HMA or 4-HB for the duration of the assay. Spheroids were allowed to form for three days before measuring oxygen consumption measurement. Each spheroid was transferred to a Spheroid FluxPak plate containing DMEM (25 mM glucose, 4 mM glutamine, and without pyruvate, phenol red and bicarbonate), and allowed to equilibrate for 1 hr at 37° C., no CO2. OCR measurements were normalized to size of the spheroid.

human cells = assay: 18O2-GASSP labelling of human cells, untargeted polar metabolomics, with or without IOX1; assay type: cell-based; conditions: 18O labelling of the metabolite in cells treated with IOX1 (dioxygenase inhibitor), 24 hours
Method: To map the molecular fate of O2 in metabolic pathways in living cells, GASSP was used to carry out ^18O2 labelling in cell lines of different tissue origins at ^18O2 concentrations that represented physiological (3%), hypoxic (1%), and severely hypoxic (0.2%) oxygen tensions found in tissues and tumours^7. At the end of each run, polar metabolites were extracted and untargeted polar metabolomics using liquid chromatography-high resolution mass spectrometry (LC-MS) were carried out to identify metabolites labeled with ^18O.
A list of unique features identified by untargeted metabolomics that were >0.25% (natural abundance of ^18O is 0.2%) labelled by ^18O atoms in each cell line at each oxygen tension was generated. In addition, background signal was controlled by requiring that ^18O labeled peaks had to have a signal that was two-fold greater than naturally occurring isotopes found in non-labelled (^16O) metabolite cell extracts. To determine the proportion of unique ^18O labelled features that were due to dioxygenase activity, cells were treated with a pan-dioxygenase inhibitor (IOX1) at concentrations that inhibit iron-dependent dioxygenases, such as the HIF1α prolyl hydroxylases (FIGS. 5E-5F) and identified ^18O labelled polar metabolites. This list of ^18O metabolites was generated by identifying all features in the unlabelled samples, filtering these features against blank samples to remove background peaks, and calculating the fractional ^18O labelling with the assumption that a metabolite would have no more than three oxygen atoms labelled, followed by manual curation of labelled features (FIG. 1B and FIG. 5G). […] These ^18O-labelled features were termed the oxy-metabolome.
To determine the identities of the labeled metabolites, the list of ^18O labelled features was annotated to their corresponding unlabelled metabolites using retention time matching, tandem mass spectrometry (MS2) fragmentation patterns, and database searching.
All steps involved in setting up labelling with ^18O2 were performed at room temperature and inside a chemical fume hood. The procedure may vary depending on the type and number of tissue culture plates in the chamber and the amount of media in the plates. Users must test the system by using ^16O2:CO2:N2 or other unlabelled gases to optimize conditions for their needs and avoid consumption of costly labelled gases. Cells were treated with or without 5 μM MG132, 500 μM IOX1, 250 μM DFO, or 70 μM ascorbate, before placing tissue culture plates into the modular incubator chamber (MIC) containing a wireless oxygen sensor and a 15 cm dish of water to maintain humidity. Next, the clamps were closed to form an air-tight seal between the lid and platform of the MIC. […] N2 flushing was repeated for a total of three times, or until the sensor in the chamber stabilized at 0% O2 for 10 minutes.

MIAPACA2 cells [3] = assay: 3D growth assay; assay type: cell-based, human; conditions: HPDL KO cells, 1 mM, three days
Method: For the 3D growth assay, approximately 2,500 cells were seeded into a low-attachment 96-well plate containing DMEM+10% diaFBS and 5% Matrigel. Cells were grown for three days at 37° C. and 5% CO2. Cells were also treated or without 1 mM 4-HMA or 4-HB for the duration of the assay. To measure 3D growth with the CyQUANT Cell Proliferation Assay kit, plates were frozen at −80° C., thawed at room temperature, and equal volumes of 2× CyQUANT reagent+lysis buffer was added to the wells. As a control, wells containing media+5% Matrigel and no cells were used as blanks. CyQUANT measurements were performed as described in the manufacturer's instructions.

HPDL [4] = assay: HPDL levels in the cell after addition of HPDL products; assay type: cell-based
HPDL [5] = molecular target: T1, HPDL (Homo sapiens, UniProt Q96IR7); assay: HPDL enzymatic assay with immunopurified HPDL-FLAG; assay type: biochemical; conditions: 400 μM substrate, 37° C., 21% 16O2, 1 hour
T1 construct: made in house; host or cells: MIAPACA2 sgHPDL #3 (HPDL-knockout) cells stably infected with the pLenti6.2 lentiviral vector; anti-FLAG M2 magnetic bead immunoprecipitation
T1 sequence (Q96IR7 1-371): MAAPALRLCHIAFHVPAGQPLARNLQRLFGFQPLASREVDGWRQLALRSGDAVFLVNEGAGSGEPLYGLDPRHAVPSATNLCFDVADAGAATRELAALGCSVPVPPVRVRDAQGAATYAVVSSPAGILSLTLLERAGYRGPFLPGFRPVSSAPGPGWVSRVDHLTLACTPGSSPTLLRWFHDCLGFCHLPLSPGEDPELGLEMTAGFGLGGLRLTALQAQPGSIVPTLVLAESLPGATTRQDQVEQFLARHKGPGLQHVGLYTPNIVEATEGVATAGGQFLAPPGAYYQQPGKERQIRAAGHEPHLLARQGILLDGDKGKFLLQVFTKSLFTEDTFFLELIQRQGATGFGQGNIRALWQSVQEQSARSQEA
Method: Homogentisate, the product of HPD, was not produced in any of the present enzymatic assays. […] This directly confirmed that HPDL activity, and not a potential HPDL-interacting enzyme, was needed for 4-HMA synthesis.
For the HPDL enzymatic assay, cell lysates were generated in TNE lysis buffer (50 mM Tris-HCl pH 8.0, 150 mM NaCl, 2 mM EDTA, and 1% NP-40, supplemented with protease (ThermoFisher Scientific) and phosphatase (10 mM NaF, 10 mM β-glycerophosphate, and 10 mM sodium pyrophosphate) inhibitors. HPDL-FLAG was immunoprecipitated using anti-FLAG M2 magnetic beads (Millipore Sigma, M8823). Cell lysates were incubated with anti-FLAG M2 magnetic beads for 1 hour at 4° C. on a rotating platform. Beads were washed four times with TNE lysis buffer, and then 10% and 90% of the immunopurified protein was used for immunoblotting or enzymatic assay, respectively. […] At the end of the assay, 10 uL of assay buffer was retrieved and prepared for analysis by gas chromatography-mass spectrometry (GC-MS, see Metabolomics section).

SMILES: O=C(O)C(O)c1ccc(O)cc1 (racemic) [Metabolite 4-HMA, 2-hydroxy-2-(4-hydroxyphenyl)acetic acid]
incorporation into CoQ10 (MIAPACA2 cells [1]): incorporated into CoQ10
effect on 4-HB levels (MIAPACA2 cells [1]; exogenous metabolite, 24 hours): minimal effect
effect on intracellular levels of the other Tyr-derived metabolites (MIAPACA2 cells [1]; 24 hours): had no effect on Tyr, 4-HPPA and 4-HPLA levels
increase of the fraction of unlabelled (non-labelled) CoQ10 (MIAPACA2 cells [1]; 24 hours): 30%
OCR (MIAPACA2 cells [2]): increased
IOX1 Sensitive (Yes/No) (human cells): Yes
3D growth (MIAPACA2 cells [3]): increased
HPDL levels in the cell (HPDL [4]): reduce

SMILES: O=C(O)c1ccc(O)cc1 [Metabolite 4-HB, 4-hydroxybenzoic acid]
effect on intracellular levels of the other Tyr-derived metabolites (MIAPACA2 cells [1]; 24 hours): did not change Tyr, 4-HPPA, 4-HPLA, and 4-HMA levels
increase of the fraction of unlabelled (non-labelled) CoQ10 (MIAPACA2 cells [1]; 24 hours): 30%
OCR (MIAPACA2 cells [2]): increased
3D growth (MIAPACA2 cells [3]): increased
HPDL levels in the cell (HPDL [4]): reduce

SMILES: O=C(O)C(=O)Cc1ccc(O)cc1 [Metabolite 4-HPPA, 4-hydroxyphenylpyruvate]
increase of the fraction of unlabelled (non-labelled) CoQ10 (MIAPACA2 cells [1]; 24 hours): 30%
4-HMA production by HPDL from the substrate (HPDL [5]): resulted in the generation of 4-HMA; also recorded: synthesized 4-HMA

4-HMA production by HPDL from the substrate (HPDL [5]): not
SMILES: N[C@@H](Cc1ccc(O)cc1)C(=O)O [Tyr, tyrosine]
IOX1 Sensitive (Yes/No) (human cells): Yes
